Measured values taken from US8063051B2, “9-substituted-8-oxo-adenine compounds as toll-like receptor (TLR7) modulators” (AstraZeneca AB, priority 2007, dated 2011).

Target: T1, Recombinant human TLR7 (Homo sapiens, UniProt Q9NYK1)
T1 construct: expressed in transfected cells; host or cells: HEK293 cell line stably expressing the pNiFty2-SEAP reporter plasmid; TLR7 in vector pUNO, blasticidin selection
T1 sequence (Q9NYK1 27-1049): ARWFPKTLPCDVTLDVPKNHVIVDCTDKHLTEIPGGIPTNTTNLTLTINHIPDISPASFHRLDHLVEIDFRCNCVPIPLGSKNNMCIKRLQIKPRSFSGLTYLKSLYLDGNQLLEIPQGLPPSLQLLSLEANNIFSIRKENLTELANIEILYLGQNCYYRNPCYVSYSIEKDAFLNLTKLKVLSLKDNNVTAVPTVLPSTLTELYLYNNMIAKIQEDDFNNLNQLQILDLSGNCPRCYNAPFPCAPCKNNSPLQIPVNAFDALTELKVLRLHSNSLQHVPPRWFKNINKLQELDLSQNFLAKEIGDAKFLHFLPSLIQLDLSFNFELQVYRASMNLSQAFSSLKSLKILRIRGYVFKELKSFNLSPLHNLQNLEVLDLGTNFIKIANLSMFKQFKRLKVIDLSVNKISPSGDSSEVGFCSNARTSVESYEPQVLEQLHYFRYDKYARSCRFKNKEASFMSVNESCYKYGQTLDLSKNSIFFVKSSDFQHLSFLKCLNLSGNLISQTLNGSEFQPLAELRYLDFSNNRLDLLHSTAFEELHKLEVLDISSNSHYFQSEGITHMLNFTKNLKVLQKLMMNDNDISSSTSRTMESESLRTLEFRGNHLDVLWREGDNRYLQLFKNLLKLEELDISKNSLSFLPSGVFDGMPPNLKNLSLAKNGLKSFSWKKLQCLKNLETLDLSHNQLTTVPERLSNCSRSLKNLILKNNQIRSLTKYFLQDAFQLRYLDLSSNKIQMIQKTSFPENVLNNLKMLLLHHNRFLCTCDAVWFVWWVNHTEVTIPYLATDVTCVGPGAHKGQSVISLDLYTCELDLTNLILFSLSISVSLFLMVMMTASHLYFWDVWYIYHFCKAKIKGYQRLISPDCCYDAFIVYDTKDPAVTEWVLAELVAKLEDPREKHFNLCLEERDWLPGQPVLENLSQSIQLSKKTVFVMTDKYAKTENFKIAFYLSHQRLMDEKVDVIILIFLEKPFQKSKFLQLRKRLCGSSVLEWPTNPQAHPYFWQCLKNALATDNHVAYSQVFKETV
Test: Human TLR7 assay (SEAP reporter in HEK293 cells)
Format: cell-based
Details: HEK293 cell line stably expressing human TLR7 and pNiFty2-SEAP reporter; SEAP induction after overnight incubation at 37° C., 0.1% (v/v) DMSO
Excerpt: Recombinant human TLR7 was stably expressed in a HEK293 cell line already stably expressing the pNiFty2-SEAP reporter plasmid; integration of the reporter gene was maintained by selection with the antibiotic zeocin. The most common variant sequence of human TLR7 (represented by the EMBL sequence AF240467) was cloned into the mammalian cell expression vector pUNO and transfected into this reporter cell-line. Transfectants with stable expression were selected using the antibiotic blasticidin. In this reporter cell-line, expression of secreted alkaline phosphatase (SEAP) is controlled by an NFkB/ELAM-1 composite promoter comprising five NFkB sites combined with the proximal ELAM-1 promoter. TLR signaling leads to the translocation of NFkB and activation of the promoter results in expression of the SEAP gene. TLR7-specific activation was assessed by determining the level of SEAP produced following overnight incubation of the cells at 37° C. with the standard compound in the presence of 0.1% (v/v) dimethylsulfoxide (DMSO). Concentration dependent induction of SEAP production by compounds was expressed as the concentration of compound which produced half of the maximal level of SEAP induction for that compound (pEC50).

| SMILES | EC50 |
| --- | --- |
| CCCCOc1nc(N)c2[nH]c(=O)n(CCCN(Cc3ccccc3)C(=O)Cn3nc(C)nc3C)c2n1 [Example 8, N-[3-(6-Amino-2-butoxy-8-oxo-7,8-dihydro-9H-purin-9-yl)propyl]-N-benzyl-2-(3,5-dimethyl-1H-1,2,4-triazol-1-yl)acetamide] | 158 nM |
| CCCCOc1nc(N)c2[nH]c(=O)n(CCCN(Cc3ccccc3)C(=O)CCc3cnccn3)c2n1 [Example 9, N-[3-(6-Amino-2-butoxy-8-oxo-7,8-dihydro-9H-purin-9-yl)propyl]-N-benzyl-3-pyrazin-2-ylpropanamide] | 50.1 nM |
| CCCCOc1nc(N)c2[nH]c(=O)n(CCCN(Cc3ccccc3)C(=O)Cc3ccc(S(C)(=O)=O)cc3)c2n1 [Example 6, N-[3-(6-Amino-2-butoxy-8-oxo-7,8-dihydro-9H-purin-9-yl)propyl]-N-benzyl-2-[4-(methylsulfonyl)phenyl]acetamide] | 79.4 nM |
| CCCCOc1nc(N)c2[nH]c(=O)n(CCCN(Cc3ccccc3)C(C)=O)c2n1 [Example 1, N-[3-(6-Amino-2-butoxy-8-oxo-7,8-dihydro-9H-purin-9-yl)propyl]-N-benzylacetamide] | 63.1 nM |
| CCCCOc1nc(N)c2[nH]c(=O)n(CCCN(Cc3ccccc3)C(=O)CN3CCN(Cc4ccccc4)CC3)c2n1 [Example 7, N-[3-(6-Amino-2-butoxy-8-oxo-7,8-dihydro-9H-purin-9-yl)propyl]-N-benzyl-2-(4-benzylpiperazin-1-yl)acetamide] | 7.94 nM |
| CCCCOc1nc(N)c2[nH]c(=O)n(CCCN(Cc3ccccc3)C(=O)COC)c2n1 [Example 2, N-[3-(6-Amino-2-butoxy-8-oxo-7,8-dihydro-9H-purin-9-yl)propyl]-N-benzyl-2-methoxyacetamide] | 50.1 nM |
| CCCCOc1nc(N)c2[nH]c(=O)n(CCCN(Cc3ccccc3)C(=O)CCOC)c2n1 [Example 4, N-[3-(6-Amino-2-butoxy-8-oxo-7,8-dihydro-9H-purin-9-yl)propyl]-N-benzyl-3-methoxypropanamide] | 79.4 nM |
| CCCCOc1nc(N)c2[nH]c(=O)n(CCCN(Cc3ccccc3)C(=O)CCC(=O)OC)c2n1 [Example 3, Methyl 4-[[3-(6-amino-2-butoxy-8-oxo-7,8-dihydro-9H-purin-9-yl)propyl](benzyl)amino]-4-oxobutanoate] | 39.8 nM |
| CCCCOc1nc(N)c2[nH]c(=O)n(CCCN(Cc3ccccc3)C(=O)CCC(=O)N(C)C)c2n1 [Example 5, N-[3-(6-Amino-2-butoxy-8-oxo-7,8-dihydro-9H-purin-9-yl)propyl]-N-benzyl-N′,N′-dimethylsuccinamide] | 79.4 nM |
| CCCCOc1nc(N)c2[nH]c(=O)n(CCCN(Cc3ccccc3)C(=O)CCN(C)C)c2n1 [Example 10, N-[3-(6-Amino-2-butoxy-8-oxo-7,8-dihydro-9H-purin-9-yl)propyl]-N-benzyl-N^3,N^3-dimethyl-β-alaninamide] | 31.6 nM |
